The results in this text go back to PMC5836727 (ACS chemical biology, 2017).

For one experiment, the target named is T1, CG6178 (Drosophila melanogaster, UniProt Q9VCC6).
T1 sequence (Q9VCC6 1-544): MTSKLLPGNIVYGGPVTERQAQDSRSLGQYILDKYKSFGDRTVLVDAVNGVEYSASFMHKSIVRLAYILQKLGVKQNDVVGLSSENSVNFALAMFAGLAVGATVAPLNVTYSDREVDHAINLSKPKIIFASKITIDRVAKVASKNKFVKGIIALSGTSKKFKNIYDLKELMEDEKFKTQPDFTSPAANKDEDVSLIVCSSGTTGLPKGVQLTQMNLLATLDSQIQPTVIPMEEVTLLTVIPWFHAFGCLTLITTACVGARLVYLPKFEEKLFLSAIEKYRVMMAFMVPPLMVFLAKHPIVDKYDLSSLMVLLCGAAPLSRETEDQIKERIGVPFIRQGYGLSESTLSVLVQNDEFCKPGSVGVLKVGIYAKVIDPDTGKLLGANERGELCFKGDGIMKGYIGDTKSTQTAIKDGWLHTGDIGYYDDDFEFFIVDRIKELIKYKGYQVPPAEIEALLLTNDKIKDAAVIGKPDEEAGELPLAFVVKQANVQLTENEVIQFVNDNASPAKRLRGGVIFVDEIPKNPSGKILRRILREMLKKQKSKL
Put plainly: bioluminescence. The conditions noted are these: ATP, MgSO4, pH 7.4; 20 nM enzyme, 250 uM luciferin. The class given is biochemical.

For experiment [1], the target named is T2, firefly luciferase (Photinus pyralis, UniProt P08659). Nature of the experiment: bioluminescence burst kinetics after rapid injection. The class given is biochemical. Conditions: 100 nM enzyme, 100 uM substrate.
Experiment [2] concerns the target T2, firefly luciferase. Nature of the experiment: bioluminescence of transfected live CHO cells. The class given is cell-based. The conditions noted are these: 100 uM in HBSS.

T2 sequence (P08659 whole entry): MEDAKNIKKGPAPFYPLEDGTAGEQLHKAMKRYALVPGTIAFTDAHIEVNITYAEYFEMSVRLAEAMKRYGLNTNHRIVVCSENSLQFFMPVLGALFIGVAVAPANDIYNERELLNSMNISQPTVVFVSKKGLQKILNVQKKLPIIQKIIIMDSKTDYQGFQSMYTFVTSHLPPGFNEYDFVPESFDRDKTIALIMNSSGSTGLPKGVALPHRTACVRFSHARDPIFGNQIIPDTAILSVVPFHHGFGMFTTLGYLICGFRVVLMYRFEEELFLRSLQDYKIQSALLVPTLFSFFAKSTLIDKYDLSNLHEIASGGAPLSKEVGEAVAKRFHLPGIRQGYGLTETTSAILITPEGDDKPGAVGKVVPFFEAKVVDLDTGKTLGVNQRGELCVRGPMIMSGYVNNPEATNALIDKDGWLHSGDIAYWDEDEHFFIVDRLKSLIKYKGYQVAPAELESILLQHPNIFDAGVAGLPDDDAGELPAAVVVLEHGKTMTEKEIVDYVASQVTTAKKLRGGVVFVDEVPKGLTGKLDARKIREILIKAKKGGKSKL

In the case of `CN1CCc2cc3nc(C4=N[C@@H](C(=O)O)CS4)sc3cc21` [CycLuc2], at CG6178, the “bioluminescence (photon flux, IVIS-100; burst kinetics)” value is on record as “we found that CG6178 is capable of luciferase activity when treated with the synthetic luciferin CycLuc2”.

As for `O=C(O)[C@H]1CSC(c2nc3ccc(O)cc3s2)=N1` [D-luciferin], the “bioluminescence burst kinetics after rapid injection” value on firefly luciferase [1] is reported as “more pronounced with the tighter-binding synthetic luciferins than with D-luciferin”.

As for `O=C(O)[C@H]1CSC(/C=C/c2ccc(N3CCCC3)cc2)=N1` [compound 5, (S,E)-2-(4-(pyrrolidin-1-yl)styryl)-4,5-dihydrothiazole-4-carboxylic acid], at firefly luciferase [2], the “bioluminescence of transfected live CHO cells” value is “all three are substrates for firefly luciferase and AbLL”.
